Laboratory results as given in patent US6281214A, “Biphenyl derivatives” (Eisai Co., Ltd, priority 1994, dated 2001).
pKi: −log10 of the molar value. Where two headings read alike, the source gives them in different places.

Legend:
Design in all cases: species or system SD rats
[1] = molecular target: T1, serotonin S2 receptor (Rattus norvegicus, UniProt P14842); test: serotonin S2 receptor binding test ([3H] Ketanserin Binding Test); conditions: 1 nM [3H] Ketanserin, rat cortex, 37° C., 15 minutes
T1 construct: The receptor fraction prepared from the cortex was molten and suspended; from tissue; host or cells: cerebral cortex of SD rats (membrane fraction)
Outline: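 Rat (SD, 6–8 weeks) cortical membranes in 50 mM Tris-HCl pH 7.4 were incubated with 1 nM [3H]ketanserin for 15 min at 37 °C, then filtered and counted. Nonspecific binding was defined with methysergide. IC50 was obtained by probit analysis and converted to Ki using the Scatchard-derived Kd.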

[2] = molecular target: T2, dopamine D2 receptor (Rattus norvegicus, UniProt P61169); test: dopamine D2 receptor binding test ([3H] Spiperone Binding Test); conditions: 1 nM [3H] Spiperone, rat corpus striatum, room temperature, 60 minutes
T2 construct: the receptor fraction prepared from the corpus striatum was molten and suspended; from tissue; host or cells: corpus striatum of SD rats (membrane fraction)
Outline: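 Rat (SD, 6–8 weeks) corpus striatum membranes in 50 mM Krebs-Tris pH 7.4 were incubated with 1 nM [3H]spiperone at room temperature for 60 minutes, with nonspecific binding defined by excess spiperone. IC50 came from probit analysis; Ki was derived using radioligand concentration and Scatchard Kd.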

[3] = molecular target: adrenergic α1 receptor; test: adrenergic α1 receptor binding test ([3H] Prazosin Binding Test); conditions: 1 nM [3H] Prazosin, rat cortex, room temperature, 60 minutes
Outline: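 Rat (SD, 6-8 weeks) cerebral cortex membranes in 50 mM Tris-HCl pH 7.4 incubated with 1 nM [3H]prazosin for 60 min at room temperature; nonspecific binding defined with phentolamine. IC50 by probit method, converted to Ki using radioligand concentration and Scatchard-derived Kd.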

[4] = read-out: Ki value, dopamine D2 receptor

T1 sequence (P14842 whole entry): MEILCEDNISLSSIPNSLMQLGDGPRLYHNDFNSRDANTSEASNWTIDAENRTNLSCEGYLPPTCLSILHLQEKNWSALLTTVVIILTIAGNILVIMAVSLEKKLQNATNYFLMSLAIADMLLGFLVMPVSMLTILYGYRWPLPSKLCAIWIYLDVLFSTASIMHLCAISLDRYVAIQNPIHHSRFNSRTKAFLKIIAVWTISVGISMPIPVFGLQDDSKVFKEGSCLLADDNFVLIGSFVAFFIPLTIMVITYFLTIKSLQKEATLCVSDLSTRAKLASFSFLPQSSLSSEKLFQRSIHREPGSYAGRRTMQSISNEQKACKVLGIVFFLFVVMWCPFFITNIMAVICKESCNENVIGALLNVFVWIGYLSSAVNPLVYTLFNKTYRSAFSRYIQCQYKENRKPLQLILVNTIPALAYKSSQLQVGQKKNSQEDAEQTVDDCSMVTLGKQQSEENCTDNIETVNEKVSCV
T2 sequence (P61169 whole entry): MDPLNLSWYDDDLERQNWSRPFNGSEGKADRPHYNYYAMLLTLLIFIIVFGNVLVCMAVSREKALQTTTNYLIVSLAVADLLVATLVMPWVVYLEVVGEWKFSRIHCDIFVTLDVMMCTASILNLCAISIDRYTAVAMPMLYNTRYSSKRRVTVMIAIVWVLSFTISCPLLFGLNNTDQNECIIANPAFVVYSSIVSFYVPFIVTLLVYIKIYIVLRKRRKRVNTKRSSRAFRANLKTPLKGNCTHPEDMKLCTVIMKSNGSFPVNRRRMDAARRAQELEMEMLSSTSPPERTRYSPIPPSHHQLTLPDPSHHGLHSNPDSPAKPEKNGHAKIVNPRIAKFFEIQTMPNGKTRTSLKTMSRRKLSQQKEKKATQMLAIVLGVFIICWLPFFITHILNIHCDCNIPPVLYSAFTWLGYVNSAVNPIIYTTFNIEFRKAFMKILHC

CCCS(=O)(=O)Nc1cc(N2CCN(CC)CC2)cc(-c2ccc(OC)cc2)c1Cl [Example 187, 1-Ethyl-4-[3-(4-methoxyphenyl)-4-chloro-5-propanesulfonyamino]phenylpiperazine]
pKi [1]: 7.42 | pKi [2, 4]: 9.27 | pKi [3]: 8.11

CCCc1cc(N2CCN(CC)CC2)cc(-c2cccc(F)c2)c1OC [Example 101, 1-Ethyl-4-[3-(3-fluorophenyl)-4-methoxy-5-propyl]phenylpiperazine]
pKi [1]: 6.58 | pKi [2, 4]: 6.93 | pKi [3]: < 6.00

CCCC(F)c1cc(N2CCN(C)CC2)cc(-c2ccccc2C)c1Cl (stereo not drawn) [Example 53, 1-Methyl-4-[3-(2-tolyl)-4-chloro-5-(1-fluorobutyl)]phenylpiperazine]
pKi [1]: 7.91 | pKi [2, 4]: 8.17 | pKi [3]: < 6.00

CC[C@H](F)c1cc(N2CCN(CC)CC2)cc(-c2ccc(F)cc2C)c1Cl [Example 211, 1-Ethyl-4-{3-[2-(4-fluorotolyl)]-4-chloro-5-[1-(S)-fluoropropnyl]}phenylpiperazine]
pKi [1]: 8.06 | pKi [2, 4]: 8.38 | pKi [3]: 5.99

CCN1CCN(c2cc(C#N)c(OC)c(-c3ccccc3)c2)CC1 [Example 89, 1-Ethyl-4-(3-phenyl-4-methoxy-5-cyano)phenylpiperazine]
pKi [1]: 6.51 | pKi ([2]; Ki value, dopamine D2 receptor): 7.35 | pKi [3]: < 6.00

CCCS(=O)(=O)Nc1cc(N2CCN(CC)CC2)cc(-c2ccccc2CC)c1Cl [Example 194, 1-Ethyl-4-[3-(2-ethylphenyl)-4-chloro-5-propanesulfonylamino]phenylpiperazine]
pKi [1]: 8.35 | pKi [2, 4]: 9.08 | pKi [3]: < 6.00

CCN1CCN(c2cc(-c3ccccc3)c(OC)c([S+]([O-])Cc3ccccc3)c2)CC1 (stereo not drawn) [Example 119, 1-Ethyl-4-(3-phenyl-4-methoxy-5-benzylsulfinyl)phenylpiperazine]
pKi [1]: 7.46 | pKi [2, 4]: 7.45 | pKi [3]: < 6.00

CCC(F)c1cc(N2CCN(CCc3ccccn3)CC2)cc(-c2ccccc2C)c1Cl (stereo not drawn) [Example 213, 1-[2-(2-Pyridyl)ethyl]-4-[3-(2-tolyl)-4-chloro-5-(1-fluoropropyl)]phenylpiperazine]
pKi [1]: 7.99 | pKi [2, 4]: 7.84 | pKi [3]: 6.63

CCN1CCN(c2cc(-c3ccccc3)c(OC)c(S(=O)(=O)CCC#N)c2)CC1 [Example 183, 1-Ethyl-4-[3-phenyl-4-methoxy-5-(2-cycanoethylsulfonyl)]phenylpiperazine]
pKi [1]: 7.09 | pKi [2, 4]: 6.78 | pKi [3]: < 6.00

CC[C@H](F)c1cc(N2CCN(CCO)CC2)cc(-c2ccc(F)cc2C)c1Cl [Example 222]
pKi [1]: 7.92 | pKi [2, 4]: 8.19 | pKi [3]: 5.98

CCN1CCN(c2cc(C=O)c(OC)c(-c3ccccc3)c2)CC1 [Example 106, 1-Ethyl-4-(3-phenyl-4-methoxy-5-formyl)phenylpiperazine]
pKi [1]: 6.42 | pKi ([2]; Ki value, dopamine D2 receptor): 7.36 | pKi [3]: < 6.00

CCOCc1cc(N2CCN(CC)CC2)cc(-c2ccccc2C)c1Cl [Example 173, 1-Ethyl-4-[3-(2-tolyl)-4-chloro-5-ethoxymethyl]phenylpiperazine]
pKi [1]: < 6.00 | pKi [2, 4]: 7.72 | pKi [3]: < 6.00

CCN1CCN(c2cc(NS(=O)(=O)CC(F)(F)F)c(Cl)c(-c3ccccc3C)c2)CC1 [Example 136]
pKi [1]: 7.05 | pKi [2, 4]: 7.85 | pKi [3]: 6.33

C=CCOCc1cc(N2CCN(CC)CC2)cc(-c2ccccc2C)c1Cl [Example 175, 1-Ethyl-4-[3-(2-tolyl)-4-chloro-5-allyloxymethyl]phenylpiperazine]
pKi [1]: < 7.00 | pKi [2, 4]: 7.53 | pKi [3]: < 6.00

CCC(F)c1cc(N2CCN(C)CC2)cc(-c2ccccc2Cl)c1Cl (stereo not drawn) [Example 22, 1-Methyl-4-[3-(2-chlorophenyl)-4-chloro-5-(1-fluoropropyl)]phenylpiperazine]
pKi [1]: 7.72 | pKi [2, 4]: 8.55 | pKi [3]: 6.09

CCN1CCN(c2cc(-c3ccc(F)cc3C)c(Cl)c(S(=O)(=O)NC3CC3)c2)CC1 [Example 146, 1-Ethyl-4-{3-[2(4-fluorotolyl)-]4-chloro-5-cyclopropaneaminosulfonyl}phenylpiperazine]
pKi [1]: 7.88 | pKi [2, 4]: 9.08 | pKi [3]: 6.46

CCC(F)c1cc(N2CCN(CC)CC2)cc(-c2ccc(F)cc2F)c1Cl (stereo not drawn) [Example 144, 1-Ethyl-4-[3-(2,4-difluorophenyl)-4-chloro-5-(1-fluoropropyl)]phenylpiperazine]
pKi [1]: 7.80 | pKi [2, 4]: 9.09 | pKi [3]: 7.17
